Data taken from the supplement of paper PMC10307832.

Legend:
Experiment in all cases: relative viability (nuclei count vs DMSO), 5 days (fraction); higher = more cells survive
Halofuginone + OSI-027 = compound: O=C(C[C@H]1NCCC[C@@H]1O)Cn1cnc2cc(Br)c(Cl)cc2c1=O (racemic) [Halofuginone] + COc1cccc2cc(-c3nc([C@H]4CC[C@H](C(=O)O)CC4)n4ncnc(N)c34)[nH]c12 [OSI-027] (partner 0.5 µM)
Method in brief: (§1)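 Each reported value is a median over duplicate plates. It expresses relative viability: treated-well nuclei count divided by vehicle-well nuclei count. Lung cancer cell lines in 1536-well plates were dosed by pin tool a day after seeding, alone with one drug or with a fixed anchor-drug dose plus five library-drug doses (not always all listed) in √10 steps, and nuclei were counted after 5 days.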

Decitabine + Navitoclax = compound: Nc1ncn([C@H]2C[C@H](O)[C@@H](CO)O2)c(=O)n1 [Decitabine] + CC1(C)CCC(c2ccc(Cl)cc2)=C(CN2CCN(c3ccc(C(=O)NS(=O)(=O)c4ccc(N[C@H](CCN5CCOCC5)CSc5ccccc5)c(S(=O)(=O)C(F)(F)F)c4)cc3)CC2)C1 [Navitoclax] (partner 0.5 µM)
Method in brief: as §1

Decitabine + Foretinib = compound: Nc1ncn([C@H]2C[C@H](O)[C@@H](CO)O2)c(=O)n1 [Decitabine] + COc1cc2c(Oc3ccc(NC(=O)C4(C(=O)Nc5ccc(F)cc5)CC4)cc3F)ccnc2cc1OCCCN1CCOCC1 [Foretinib] (partner 0.25 µM)
Method in brief: as §1

Cediranib + Decitabine = compound: COc1cc2c(Oc3ccc4[nH]c(C)cc4c3F)ncnc2cc1OCCCN1CCCC1 [Cediranib] + Nc1ncn([C@H]2C[C@H](O)[C@@H](CO)O2)c(=O)n1 [Decitabine] (partner 2 µM)
Method in brief: as §1

Row | Cell Line | relative viability (Halofuginone + OSI-027; first compound 0.001 µM) | relative viability (Halofuginone + OSI-027; first compound 0.003162 µM) | relative viability (Halofuginone + OSI-027; first compound 0.01 µM) | relative viability (Halofuginone + OSI-027; first compound 0.03162 µM) | relative viability (Halofuginone + OSI-027; first compound 0.1 µM) | relative viability (Decitabine + Navitoclax; first compound 0.04 µM) | relative viability (Decitabine + Navitoclax; first compound 0.1265 µM) | relative viability (Decitabine + Navitoclax; first compound 0.4 µM) | relative viability (Decitabine + Navitoclax; first compound 1.265 µM) | relative viability (Decitabine + Navitoclax; first compound 4 µM) | relative viability (Decitabine + Foretinib; first compound 0.04 µM) | relative viability (Decitabine + Foretinib; first compound 0.1265 µM) | relative viability (Decitabine + Foretinib; first compound 0.4 µM) | relative viability (Decitabine + Foretinib; first compound 1.265 µM) | relative viability (Decitabine + Foretinib; first compound 4 µM) | relative viability (Cediranib + Decitabine; first compound 0.04 µM) | relative viability (Cediranib + Decitabine; first compound 0.1265 µM) | relative viability (Cediranib + Decitabine; first compound 0.4 µM) | relative viability (Cediranib + Decitabine; first compound 1.265 µM) | relative viability (Cediranib + Decitabine; first compound 4 µM)
1 | NCI-H2085 | 0.886 | 0.832 | 0.755 | 0.721 | 0.523 | 0.882 | 0.736 | 0.67 | 0.497 | 0.467 | 0.695 | 0.556 | 0.407 | 0.457 | 0.426 | 0.55 | 0.515 | 0.537 | 0.526 | 0.541
2 | NCI-H2087 | 0.439 | 0.593 | 0.528 | 0.484 | 0.424 | 0.635 | 0.562 | 0.458 | 0.369 | 0.357 | 0.558 | 0.624 | 0.393 | 0.317 | 0.269 | 0.22 | 0.35 | 0.308 | 0.328 | 0.276
3 | HCC-366 | 1.33 | 1.02 | 0.857 | 0.892 | 0.567 | 0.92 | 0.906 | 0.382 | 0.232 | 0.133 | 0.825 | 0.743 | 0.448 | 0.211 | 0.128 | 0.379 | 0.318 | 0.305 | 0.364 | 0.338
4 | NCI-H2126 | 0.727 | 0.604 | 0.695 | 0.612 | 0.549 | 0.777 | 0.787 | 0.548 | 0.491 | 0.574 | 1.05 | 0.929 | 0.607 | 0.583 | 0.466 | 0.589 | 0.573 | 0.58 | 0.561 | 0.602
5 | SK-LU-1 | 0.388 | 0.399 | 0.406 | 0.341 | 0.276 | 0.262 | 0.385 | 0.23 | 0.335 | 0.282 | 0.686 | 0.674 | 0.376 | 0.356 | 0.356 | 0.657 | 0.638 | 0.636 | 0.613 | 0.73
6 | HCC-78 | 0.347 | 0.334 | 0.363 | 0.396 | 0.407 | 0.71 | 0.561 | 0.458 | 0.329 | 0.284 | 0.648 | 0.58 | 0.588 | 0.455 | 0.433 | 0.74 | 0.64 | 0.747 | 0.605 | 0.771
7 | LCLC-97TM1 | 0.674 | 0.612 | 0.597 | 0.566 | 0.358 | 0.16 | 0.194 | 0.172 | 0.103 | 0.684 | 0.583 | 0.728 | 0.418 | 0.256 | 0.177 | 0.234 |  | 0.223 | 0.196 | 0.248
8 | NCI-H838 | 0.39 | 0.414 | 0.413 | 0.339 | 0.16 | 0.734 | 0.512 | 0.321 | 0.366 | 0.309 | 0.716 | 0.492 | 0.357 | 0.387 | 0.301 | 0.497 | 0.376 | 0.432 | 0.383 | 0.506
9 | NCI-H520 | 0.311 | 0.3 | 0.258 | 0.321 | 0.199 | 0.941 | 0.804 | 0.615 | 0.819 | 0.467 | 0.732 | 0.691 | 0.584 | 0.387 | 0.343 | 0.572 | 0.588 | 0.502 | 0.488 | 0.459
10 | NCI-H2347 | 0.577 | 0.336 | 0.454 | 0.425 | 0.344 | 0.792 | 0.543 | 0.425 | 0.385 | 0.348 |  | 0.857 | 0.454 | 0.683 | 0.819 | 0.671 | 0.703 | 0.617 | 0.659 | 0.568
11 | NCI-H441 | 0.737 | 0.583 | 0.591 | 0.647 | 0.336 | 0.258 | 0.293 | 0.274 | 0.259 | 0.223 | 0.396 | 0.401 | 0.347 | 0.25 | 0.325 | 0.288 | 0.234 | 0.275 | 0.251 | 0.286
12 | NCI-H1944 | 0.422 | 0.431 | 0.447 | 0.404 | 0.343 | 0.689 | 0.669 | 0.564 | 0.423 | 0.365 | 0.766 | 0.752 | 0.567 | 0.444 | 0.396 | 0.443 | 0.396 | 0.422 | 0.443 | 0.45
13 | NCI-H2405 | 0.71 | 0.656 | 0.638 | 0.619 | 0.577 | 0.769 | 0.837 | 0.455 | 0.355 | 0.244 | 0.957 | 0.918 | 0.863 | 0.628 | 0.462 | 0.68 | 0.758 | 0.71 | 0.661 | 0.793
14 | HCC-15 | 0.709 | 0.667 | 0.644 | 0.709 | 0.509 | 0.654 | 0.646 | 0.469 | 0.413 | 0.348 | 0.939 | 0.957 | 0.542 | 0.56 | 0.434 | 0.645 | 0.433 | 0.575 | 0.688 | 0.644
